Some test systems named below: A549; CCRF-CEM; EKVX; HCT-15; Hs-578T; K562; KM12; LOX IMVI; MCF7; MDA-MB-231; MDA-MB-435; NCI-H226; NCI-H23; NCI-H522; RXF 393; SK-MEL-2; SK-MEL-5; SNB-19; SNB-75; TK-10.
Common to all, as to test: NCI tumour cell line growth inhibition, 48 h

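Briefly, cells in 96-well plates were exposed to five compound concentrations for 48 h, and endpoints were estimated by linear interpolation. GI50 is the concentration that inhibits growth by half.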 Activity calls are given as the source filed them. Rule as the data show it: active = GI50 up to about 1.1 µM and inactive = higher.

For `CC(=O)O[C@H]1CC2C(C3CCC(C(C)CCC(=O)O)[C@]31C)[C@H](OC(C)=O)C[C@@H]1CC3(CC[C@]21C)OOC1(CC[C@]2(C)C4C[C@H](OC(C)=O)[C@]5(C)C(C(C)CCC(=O)O)CCC5C4[C@H](OC(C)=O)C[C@@H]2C1)OO3` (stereo not given in full), the GI50 with A549 is 1.27 µM (inactive); with CCRF-CEM, 2.59 µM (inactive); in the assay on EKVX, 2.81 µM (inactive); with HCT-15 it was 2.22 µM; in the assay on Hs-578T it was 1.5 µM (inactive); in the assay with K562 it was 2.44 µM (inactive). In addition, the GI50 in the assay with KM12 is 1.31 µM (inactive); in the assay on LOX IMVI, 1.63 µM (inactive); with MCF7 it was 2.7 µM (inactive); in the assay on MDA-MB-231, 2.01 µM (inactive); in the assay with MDA-MB-435, 1.94 µM (inactive); in the assay with NCI-H226 it was 2.04 µM (inactive). Moreover, the GI50 in the assay with NCI-H23 was 1.64 µM (inactive); in the assay with NCI-H522 it was 1.42 µM (inactive); with RXF 393, 1.36 µM (inactive); with SK-MEL-2, 1.77 µM (inactive); in the assay on SK-MEL-5, 1.55 µM (inactive); in the assay with SNB-19, 2.86 µM (inactive). For the same compound, the GI50 was 1.3 µM (inactive) in the assay with SNB-75 and 2.75 µM (inactive) in the assay with TK-10.
Consider `COc1cc(O)c2c(=O)c3c(C)cccc3n(C)c2c1`, for which the GI50 was > 10 µM (inactive) with A549; > 10 µM (inactive) in the assay on CCRF-CEM; 4.17 µM (inactive) with EKVX; more than 10 µM with HCT-15; > 10 µM (inactive) in the assay with Hs-578T; > 10 µM (inactive) in the assay on K562. The GI50 with KM12, in the assay on LOX IMVI, in the assay on MCF7, in the assay with MDA-MB-231, with MDA-MB-435 and in the assay on NCI-H226 was > 10 µM (inactive) throughout. In addition, the GI50 in the assay with NCI-H23, with NCI-H522, in the assay with RXF 393, in the assay with SK-MEL-2, with SK-MEL-5 and in the assay on SNB-19 was > 10 µM (inactive) in each case. For the same compound, the GI50 in the assay on SNB-75 and with TK-10 was > 10 µM (inactive) each time.
Regarding `CCCCCCNCCCNc1c2cc(OC)ccc2nc2cccc([N+](=O)[O-])c12`, the GI50 is 0.0578 µM (active) in the assay with A549; 0.0403 µM (active) in the assay on CCRF-CEM; 0.0986 µM (active) in the assay on EKVX; 0.198 µM in the assay on HCT-15; 0.299 µM (active) in the assay on Hs-578T; 0.103 µM (active) in the assay on K562. The GI50 with KM12 is 0.144 µM (active); in the assay with LOX IMVI it was 0.134 µM (active); in the assay on MCF7, 0.212 µM (active); in the assay on MDA-MB-231, 0.055 µM (active); in the assay with MDA-MB-435, 0.143 µM (active); in the assay on NCI-H226, 0.257 µM (active). Besides, the GI50 in the assay on NCI-H23 was 0.124 µM (active); with NCI-H522, < 0.0195 µM (active); in the assay on RXF 393, 0.0245 µM (active); in the assay on SK-MEL-2, 0.0764 µM (active); in the assay with SK-MEL-5 it was < 0.0385 µM (active); in the assay on SNB-19 it was 0.369 µM (active). In addition, the GI50 in the assay on SNB-75 was 0.298 µM (active); in the assay with TK-10, 0.131 µM (active).
For the compound `CCCCC(=O)OC[n+]1cccc(-c2c(COC(=O)NC(C)C)c(COC(=O)NC(C)C)c3n2CCC3)c1`, the GI50 is 81.1 µM (inactive) with A549; 7.93 µM (inactive) with CCRF-CEM; > 100 µM (inactive) in the assay on EKVX; 53.3 µM in the assay on HCT-15; > 50.6 µM (inactive) with Hs-578T; 38.6 µM (inactive) with K562. Also, the GI50 in the assay on KM12 was > 100 µM (inactive); in the assay on LOX IMVI, 21.7 µM (inactive); in the assay with MCF7, 28.8 µM (inactive); in the assay with MDA-MB-231, 62.5 µM (inactive); with MDA-MB-435 it was 64.9 µM (inactive); in the assay on NCI-H226, 55.7 µM (inactive). Further, the GI50 in the assay on NCI-H23 was 26.2 µM (inactive); in the assay with NCI-H522 it was 23 µM (inactive); in the assay with RXF 393 it was 22.9 µM (inactive); with SK-MEL-2 it was 26.4 µM (inactive); in the assay on SK-MEL-5 it was 35.6 µM (inactive); in the assay on SNB-19 it was > 92.3 µM (inactive). In addition, the figures for the GI50 in the assay on SNB-75 and with TK-10 were 50 µM (inactive) and 42.1 µM (inactive), respectively.
As for `CCN(CC)CCCn1c(=O)c2cccnc2n2c3c(=O)n(C)c(=O)n(C)c3nc12`, the GI50 in the assay with A549 was > 100 µM (inactive); with CCRF-CEM it was > 100 µM (inactive); with EKVX, > 100 µM (inactive); in the assay on HCT-15, more than 100 µM; with Hs-578T it was > 100 µM (inactive); in the assay on K562, > 100 µM (inactive). In addition, the GI50 in the assay on KM12, with LOX IMVI, in the assay with MCF7, in the assay on MDA-MB-231, in the assay on MDA-MB-435 and in the assay with NCI-H226 was > 100 µM (inactive) throughout. Besides, the GI50 in the assay on NCI-H23, in the assay on NCI-H522, in the assay on RXF 393, in the assay on SK-MEL-2, in the assay with SK-MEL-5 and in the assay with SNB-19 was > 100 µM (inactive) throughout. For the same compound, the GI50 in the assay with SNB-75 and in the assay with TK-10 was > 100 µM (inactive) throughout.
Regarding `COc1ccc(/C=C2\CCC(CN3CCOCC3)C2=O)cc1` (stereo not given), the GI50 with A549 is 9.57 µM (inactive); in the assay on CCRF-CEM, 1.38 µM (inactive); in the assay with EKVX, 7.57 µM (inactive); in the assay with HCT-15, 2.39 µM; in the assay on Hs-578T, 3.04 µM (inactive); in the assay on K562 it was 1.03 µM (active). The GI50 was 5.65 µM (inactive) in the assay with KM12; 4.65 µM (inactive) in the assay with LOX IMVI; 2.38 µM (inactive) in the assay on MCF7; 2.08 µM (inactive) in the assay on MDA-MB-231; 2.05 µM (inactive) in the assay with MDA-MB-435; 18.9 µM (inactive) in the assay on NCI-H226. The GI50 with NCI-H23 was 5.94 µM (inactive); in the assay on NCI-H522, 0.776 µM (active); with RXF 393 it was 0.942 µM (active); in the assay with SK-MEL-2, 3.78 µM (inactive); in the assay on SK-MEL-5, 4.62 µM (inactive); in the assay with SNB-19, 11.4 µM (inactive). For the same compound, the GI50 is 4.68 µM (inactive) with SNB-75 and 3.57 µM (inactive) with TK-10.
As to `CN(C)/C=N/c1cc(=O)n(C)c(=O)n1C`, the GI50 is > 100 µM (inactive) in the assay on A549; > 100 µM (inactive) in the assay on CCRF-CEM; > 100 µM (inactive) with EKVX; more than 100 µM in the assay on HCT-15; > 100 µM (inactive) with Hs-578T; > 100 µM (inactive) in the assay with K562. Further, the GI50 in the assay with KM12, with LOX IMVI, with MCF7, in the assay with MDA-MB-231, with MDA-MB-435 and with NCI-H226 was > 100 µM (inactive) throughout. Also, the GI50 with NCI-H23, with NCI-H522, with RXF 393, in the assay on SK-MEL-2, in the assay with SK-MEL-5 and in the assay with SNB-19 was > 100 µM (inactive) in each case. The GI50 in the assay on SNB-75 and with TK-10 was > 100 µM (inactive) in each case.
For `O=c1[nH][nH]c(=S)c(=O)[nH]1`, the GI50 was > 100 µM (inactive) with A549; > 100 µM (inactive) in the assay with CCRF-CEM; > 100 µM (inactive) in the assay on EKVX; more than 100 µM with HCT-15; > 100 µM (inactive) with Hs-578T; > 100 µM (inactive) with K562. Besides, the GI50 in the assay with KM12, in the assay with LOX IMVI, with MCF7, with MDA-MB-231, in the assay on MDA-MB-435 and with NCI-H226 was > 100 µM (inactive) throughout. The GI50 in the assay on NCI-H23, with NCI-H522, in the assay on RXF 393, with SK-MEL-2, in the assay with SK-MEL-5 and in the assay on SNB-19 was > 100 µM (inactive) in each case. For the same compound, the GI50 in the assay with SNB-75 and with TK-10 was > 100 µM (inactive) each time.
On to `O=C(/C=C/c1ccccc1Br)c1ccccc1`, for which the GI50 with A549 is 12 µM (inactive); with CCRF-CEM, 0.259 µM (active); in the assay on EKVX, 13 µM (inactive); in the assay on HCT-15, 2.11 µM; in the assay on Hs-578T, 5.02 µM (inactive); with K562, 1.94 µM (inactive). For the same compound, the GI50 in the assay with KM12 is 2.14 µM (inactive); with LOX IMVI it was 1.36 µM (inactive); in the assay on MCF7 it was 0.427 µM (active); in the assay on MDA-MB-231, 13.2 µM (inactive); with MDA-MB-435 it was 2.46 µM (inactive); in the assay on NCI-H226, 17.1 µM (inactive). Moreover, the GI50 in the assay on NCI-H23 is 4.39 µM (inactive); in the assay on NCI-H522, 2.65 µM (inactive); with RXF 393 it was 7.82 µM (inactive); in the assay on SK-MEL-2, 15.7 µM (inactive); in the assay on SK-MEL-5, 9.31 µM (inactive); in the assay on SNB-19 it was 10.9 µM (inactive). The GI50 is 12 µM (inactive) in the assay on SNB-75 and 2.17 µM (inactive) in the assay with TK-10.
Consider `CCOC(=O)CCC(NC(=O)c1ccc(Oc2nc3ccccc3nc2-c2ccccc2)cc1)C(=O)OCC` (stereo not given), for which the GI50 is 37.8 µM (inactive) with A549; > 100 µM (inactive) in the assay on CCRF-CEM; 57.9 µM (inactive) with EKVX; more than 100 µM with HCT-15; 7.08 µM (inactive) in the assay on Hs-578T; > 60.4 µM (inactive) with K562. Further, the GI50 was 33.3 µM (inactive) in the assay on KM12; 43.7 µM (inactive) in the assay on LOX IMVI; > 100 µM (inactive) in the assay with MCF7; 10.6 µM (inactive) in the assay on MDA-MB-231; > 52.1 µM (inactive) in the assay on MDA-MB-435; 13.2 µM (inactive) with NCI-H226. Also, the GI50 with NCI-H23 is 17.4 µM (inactive); with NCI-H522, 11.3 µM (inactive); in the assay with RXF 393 it was 20.1 µM (inactive); in the assay with SK-MEL-2 it was 31.5 µM (inactive); with SK-MEL-5 it was > 100 µM (inactive); in the assay on SNB-19, 22 µM (inactive). Moreover, the GI50 is 8.85 µM (inactive) in the assay with SNB-75 and 17.5 µM (inactive) in the assay with TK-10.
